Test [1] concerns the target Cyclin-dependent kinase 5/CDK5 activator 1 (Homo sapiens, UniProt Q00535). The test can be described thus: Inhibition of human recombinant CDK5/p25 after 30 mins by scintillation counting. The class given is protein-complex assay.
The target in test [2] is Glycogen synthase kinase-3 (Sus scrofa, UniProt B2LUN4+I6LNT8). The test can be described thus: Inhibition of porcine brain GSK3alpha/beta using GS-1 as substrate.
Test [3] deals with Dual specificity protein kinase CLK1 (Homo sapiens, UniProt P49759).
A short description of test [4]: Inhibition of porcine brain CK1delta/epsilon using RRKHAAIGpSAYSITA as substrate. More on the design: species or system Sus scrofa.
The target of test [5] is Dual specificity tyrosine-phosphorylation-regulated kinase 1A (Rattus norvegicus, UniProt Q63470). The experiment in a line: Inhibition of rat recombinant DYRK1A-GST expressed in Escherichia coli using KKISGRLSPIMTEQ as substrate.

Chain of Cyclin-dependent kinase 5/CDK5 activator 1 (Q00535 whole entry): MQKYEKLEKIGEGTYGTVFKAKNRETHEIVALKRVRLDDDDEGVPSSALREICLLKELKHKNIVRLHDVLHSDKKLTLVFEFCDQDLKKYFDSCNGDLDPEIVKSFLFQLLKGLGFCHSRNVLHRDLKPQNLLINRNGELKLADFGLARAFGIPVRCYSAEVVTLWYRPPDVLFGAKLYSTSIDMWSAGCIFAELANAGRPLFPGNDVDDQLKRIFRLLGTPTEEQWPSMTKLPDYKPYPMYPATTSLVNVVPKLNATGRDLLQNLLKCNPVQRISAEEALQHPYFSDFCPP
Chain of Cyclin-dependent kinase 5/CDK5 activator 1 (Q15078 whole entry, further chain): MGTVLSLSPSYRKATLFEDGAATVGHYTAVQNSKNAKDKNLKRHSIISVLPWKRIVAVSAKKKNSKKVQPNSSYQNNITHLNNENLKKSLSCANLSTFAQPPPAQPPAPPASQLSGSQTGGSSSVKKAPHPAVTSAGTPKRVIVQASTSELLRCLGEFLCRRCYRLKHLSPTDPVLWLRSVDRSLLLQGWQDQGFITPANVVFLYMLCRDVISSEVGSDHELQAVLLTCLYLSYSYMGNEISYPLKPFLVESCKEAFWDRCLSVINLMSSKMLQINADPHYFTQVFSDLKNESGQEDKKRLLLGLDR
Chain of Dual specificity protein kinase CLK1 (P49759 whole entry): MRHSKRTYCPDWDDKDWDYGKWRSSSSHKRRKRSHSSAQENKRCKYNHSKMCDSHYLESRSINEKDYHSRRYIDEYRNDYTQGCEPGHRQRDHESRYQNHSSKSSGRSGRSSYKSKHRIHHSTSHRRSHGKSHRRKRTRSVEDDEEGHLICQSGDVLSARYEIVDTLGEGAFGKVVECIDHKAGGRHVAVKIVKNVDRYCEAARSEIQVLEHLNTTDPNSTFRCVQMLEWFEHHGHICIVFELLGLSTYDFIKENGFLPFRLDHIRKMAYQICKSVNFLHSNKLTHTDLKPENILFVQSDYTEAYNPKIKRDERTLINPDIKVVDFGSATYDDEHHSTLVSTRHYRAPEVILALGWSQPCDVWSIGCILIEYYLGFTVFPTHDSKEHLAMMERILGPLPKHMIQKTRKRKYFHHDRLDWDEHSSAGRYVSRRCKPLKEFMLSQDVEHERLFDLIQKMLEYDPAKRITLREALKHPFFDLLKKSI

As usually defined, the IC50 is the concentration that gives 50% inhibition. As for `COc1ccc2c(c1)sc1c(Nc3ccc(F)cc3)ncnc12`, the concentration for half-maximal inhibition (IC50) in test [1], in test [2], in test [3], in test [4] and in test [5] was more than 10 µM in each case.

In the case of `COc1ccc2c(c1)sc1c(N)ncnc12`, the 50% inhibitory concentration (IC50) in test [1], in test [2], in test [3], in test [4] and in test [5] was more than 10 µM each time.

For the molecule `COc1ccc2c(c1)sc1c(Nc3cccc(C)c3)ncnc12`, the IC50 in test [1] is more than 10 µM; in test [2] it was more than 10 µM; in test [3], more than 10 µM; in test [4], more than 10 µM; in test [5], 6.1 µM.

Turning to `COc1ccc2c(c1)sc1c(Nc3ccc(C#N)cc3)ncnc12`, the IC50 in test [1] is more than 10 µM; in test [2], more than 10 µM; in test [3], 6.8 µM; in test [4] it was more than 10 µM; in test [5], 2.6 µM.

For the molecule `COc1ccc2c(c1)sc1c(Nc3ccc(C)cc3)ncnc12`, the IC50 in test [1], in test [2], in test [3], in test [4] and in test [5] was more than 10 µM each time.

Regarding `COc1ccc2c(c1)sc1c(Nc3ccc(OC)c(OC)c3)ncnc12`, the IC50 in test [1] was more than 10 µM; in test [2], more than 10 µM; in test [3], 2.8 µM; in test [4], more than 10 µM; in test [5] it was 0.93 µM.

As for `COc1ccc(Nc2ncnc3c2oc2cc(OC)ccc23)cc1`, the IC50 was more than 10 µM in test [1]; more than 10 µM in test [2]; 1.5 µM in test [3]; more than 10 µM in test [4]; 0.88 µM in test [5].

On to `COc1ccc2c(c1)oc1c(Nc3ccccc3)ncnc12`, for which the IC50 in test [1], in test [2], in test [3], in test [4] and in test [5] was more than 10 µM throughout.

Turning to `COc1ccc2c(c1)sc1c(Nc3ccc(Br)cc3F)ncnc12`, the IC50 is more than 10 µM in test [1]; more than 10 µM in test [2]; 2.3 µM in test [3]; more than 10 µM in test [4]; 0.71 µM in test [5].

For the molecule `COc1ccc(Nc2ncnc3c2sc2cc(OC)ccc23)c(F)c1`, the IC50 is more than 10 µM in test [1]; more than 10 µM in test [2]; more than 10 µM in test [3]; more than 10 µM in test [4]; 0.71 µM in test [5].

As for `COc1ccc2c(c1)oc1c(Nc3ccc(Cl)cc3)ncnc12`, the IC50 in test [1], in test [2], in test [3], in test [4] and in test [5] was more than 10 µM each time.

Regarding `COc1ccc2c(c1)oc1c(Nc3cc(OC)c(OC)c(OC)c3)ncnc12`, the IC50 in test [1], in test [2], in test [3], in test [4] and in test [5] was more than 10 µM each time.

`COc1ccc2c(c1)oc1c(Nc3ccc(N(C)C)cc3)ncnc12`: the IC50 in test [1], in test [2], in test [3], in test [4] and in test [5] was more than 10 µM in each case.

As for `COc1ccc2c(c1)sc1c(Nc3cccc(Cl)c3)ncnc12`, the IC50 in test [1], in test [2], in test [3], in test [4] and in test [5] was more than 10 µM in each case.

For the origin of these results see ChEMBL document CHEMBL2311417, “Synthesis and biological evaluation of N-aryl-7-methoxybenzo[b]furo[3,2-d]pyrimidin-4-amines and their N-arylbenzo[b]thieno[3,2-d]pyrimidin-4-amine analogues as dual inhibitors of CLK1 and DYRK1A kinases” (Eur J Med Chem, 2013).
